Results reported in publication PMC11442653, “Treating ICB-resistant cancer by inhibiting PD-L1 via DHHC3 degradation induced by cell penetrating peptide-induced chimera conjugates” (Cell Death & Disease, 2024).

Assays:
[1] = tested on: 4T1 cells; assay: 4T1 xenograft model in BALB/c mice, antitumor effect; type: in vivo, mouse
Procedure: Female BALB/c mice, aged 6–8 weeks and weighing approximately 20 g were procured from the Wuhan Experimental Animal Center, Hubei, China. In vivo studies assessing antitumor effects were performed according to the protocols of the Experimental Animal Welfare and Ethics Committee at Wuhan University. These studies complied with the National Research Council’s guidelines detailed in the “Guide for the Care and Use of Laboratory Animals.” Cells were harvested in an optimal growth phase with approximately 80% confluence, centrifuged to discard the supernatant, and 2 million 4T1 cells were resuspended in 125 µL of PBS. This cell suspension was subcutaneously injected into the dorsal flank of mice to initiate the tumor model. Tumor dimensions were regularly measured using calipers, and the volume was calculated using the following formula: (length × width²)/2. When the tumor volume was 80–100 mm³, the tumor-bearing mice were allocated for further in vivo investigation. […] The treatments were administered via tail vein injections on days 0, 2, 4, 6, 8, 10, and 12. Throughout the experiment, both the weight of the mice and tumor volume were recorded. On day 18, the mice were euthanized via cervical dislocation. The tumors were excised for measurement, photographic documentation, and weighing.

[2] = tested on: 4T1 cells; assay: Activity against ICB-resistant 4T1 tumors in vitro (PD-L1 blockers); type: cell-based, mouse
[3] = tested on: C33A cells; assay: TUNEL apoptosis assay with cisplatin; type: cell-based, human; conditions: cisplatin vs control
Procedure: Cells were seeded in 6-well plates at a density between 30% and 50%. Following complete adhesion, various treatments were applied: PBS alone, cisplatin, or a combination of cisplatin and PCC16 for 4 h each. After incubation, the medium was replaced and the cells were rinsed with PBS. The cells were fixed with 4% paraformaldehyde for half an hour and washed again with PBS. To permeabilize the cells, PBS mixed with 0.3% Triton X-100 was added and the cells were incubated at room temperature for 5 min. A specific quantity of the terminal deoxynucleotidyl transferase dUTP nick end labeling (TUNEL) assay reagent was prepared and mixed. After washing the cells on coverslips with PBS twice, 50 µL of the TUNEL reagent was applied to each cell sample. These samples were then incubated at 37 °C in a dark environment for 60 min. The samples were then washed three times with PBS and stained with DAPI for 3–5 min, followed by washing with PBS twice. The final step involved mounting the samples for observation under a fluorescence microscope using an excitation wavelength range of 450–500 nm and an emission wavelength range of 515–565 nm to detect green fluorescence.

[4] = tested on: C33A cells; assay: Ki67 proliferation assay with cisplatin; type: cell-based, human; conditions: cisplatin vs control
[5] = tested on: C33A cells; assay: Colony formation assay with cisplatin; type: cell-based, human; conditions: vs control; 4 h treatment, then 7 days
Procedure: The procedure commenced by counting and seeding cancer cells into a 6-well plate, with each well containing approximately 1000 cells. Following complete cell adhesion, various treatments were applied to each well, including a control PBS solution, cisplatin alone, and a combination of cisplatin and PCC16. This was followed by a 4-h incubation period. Subsequently, the initial culture medium was discarded, and the cells were incubated for additional 7 days in a fresh complete medium, which was renewed every 2–3 days. The cultivation process was halted on the formation of visible colonies detectable under a microscope, with each colony comprising approximately 60–80 cells. Double washing with PBS was conducted, followed by a 20-min fixation of the cells using a tissue cell fixative. After fixation, the cells were washed twice with PBS and stained with 0.1% crystal violet for 20 min. After rinsing the excess stain with deionized water, the plates were air-dried at ambient temperature. The colonies were photographed for documentation, and the cell colony counts in each treatment group was recorded.

Compound | effect on ICB-resistant tumors in vivo ([1]; 4T1) | average tumor weight, percent of control group ([1]; 4T1 xenograft, BALB/c mice, tail vein days 0, 2, 4, 6, 8, 10, 12, n = 4) [%] | tumor weight and size ([1]; 4T1 xenograft, vs control, n = 4) | effect on ICB-resistant tumors in vitro [2] | apoptosis [3] | cell proliferation (Ki67) [4] | number of C33A colonies [5]
Cc1c(COc2ccc(CN3CCCCC3C(=O)O)cc2Br)cccc1-c1ccccc1 (stereo not shown) [BMS-8] | no significant effect on ICB-resistant tumors | 90.8 | slight decrease in weight and size | no significant effect on ICB-resistant tumors |  |  | 
N.N.[Cl][Pt][Cl] [cisplatin] |  |  |  |  | apoptosis increased | cell proliferation decreased | decreased
